Columns and labels:
PKCα = PKCα (Homo sapiens, UniProt P17252); assay: Z'-Lyte recombinant enzyme assay, PKCα; assay type: biochemical
Protocol: (§1) Half maximal inhibitory concentrations of Cmpd 1 were determined by Z’-Lyte biochemical assays (Life Technologies SelectScreen™ Kinase Profiling Services, Thermo Fisher Scientific). Kinome selectivity was determined at 1 μM Cmpd 1 concentration against a panel of 119 kinases. The original kinome tree in Fig. 1b was taken from Ref.[68].

PKCβ1 = PKCβ1 (Homo sapiens, UniProt P05771); assay: Z'-Lyte recombinant enzyme assay, PKCβ1; assay type: biochemical
Protocol: as §1

PKCθ = PKCθ (Homo sapiens, UniProt Q04759); assay: Z'-Lyte recombinant enzyme assay, PKCθ; assay type: biochemical
Protocol: as §1

PKCγ = PKCγ (Homo sapiens, UniProt P05129); assay: Z'-Lyte recombinant enzyme assay, PKCγ; assay type: biochemical
Protocol: as §1

PKCε = molecular target: T1, PKCε (Homo sapiens, UniProt Q02156); assay: Z'-Lyte recombinant enzyme assay, PKCε; assay type: biochemical
T1 sequence (Q02156 1-737): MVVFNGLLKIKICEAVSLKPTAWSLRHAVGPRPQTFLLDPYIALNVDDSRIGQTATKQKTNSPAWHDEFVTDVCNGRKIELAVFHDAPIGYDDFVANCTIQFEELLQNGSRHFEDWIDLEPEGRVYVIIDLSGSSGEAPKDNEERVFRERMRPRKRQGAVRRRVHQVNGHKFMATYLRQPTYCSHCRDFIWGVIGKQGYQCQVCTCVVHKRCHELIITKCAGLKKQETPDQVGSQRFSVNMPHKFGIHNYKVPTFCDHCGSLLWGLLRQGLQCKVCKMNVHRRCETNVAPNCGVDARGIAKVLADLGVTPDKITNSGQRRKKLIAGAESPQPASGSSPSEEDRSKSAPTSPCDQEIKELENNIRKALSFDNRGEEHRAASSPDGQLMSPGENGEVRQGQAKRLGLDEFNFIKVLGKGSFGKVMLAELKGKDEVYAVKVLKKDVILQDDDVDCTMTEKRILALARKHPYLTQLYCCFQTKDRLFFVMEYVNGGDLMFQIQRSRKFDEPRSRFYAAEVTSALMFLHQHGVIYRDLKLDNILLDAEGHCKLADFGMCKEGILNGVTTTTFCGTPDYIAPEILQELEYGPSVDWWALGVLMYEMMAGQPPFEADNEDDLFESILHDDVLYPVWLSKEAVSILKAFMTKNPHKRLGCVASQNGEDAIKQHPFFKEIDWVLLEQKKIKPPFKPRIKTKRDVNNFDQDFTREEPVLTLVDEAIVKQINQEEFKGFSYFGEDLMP
Protocol: as §1

PKCη = PKCη (Homo sapiens, UniProt P24723); assay: Z'-Lyte recombinant enzyme assay, PKCη; assay type: biochemical
Protocol: as §1

PKCδ = PKCδ (Homo sapiens, UniProt Q05655); assay: Z'-Lyte recombinant enzyme assay, PKCδ; assay type: biochemical
Protocol: as §1

PKCι = molecular target: T2, PKCι (Homo sapiens, UniProt P41743); assay: Z'-Lyte recombinant enzyme assay, PKCι; assay type: biochemical
T2 sequence (P41743 1-596): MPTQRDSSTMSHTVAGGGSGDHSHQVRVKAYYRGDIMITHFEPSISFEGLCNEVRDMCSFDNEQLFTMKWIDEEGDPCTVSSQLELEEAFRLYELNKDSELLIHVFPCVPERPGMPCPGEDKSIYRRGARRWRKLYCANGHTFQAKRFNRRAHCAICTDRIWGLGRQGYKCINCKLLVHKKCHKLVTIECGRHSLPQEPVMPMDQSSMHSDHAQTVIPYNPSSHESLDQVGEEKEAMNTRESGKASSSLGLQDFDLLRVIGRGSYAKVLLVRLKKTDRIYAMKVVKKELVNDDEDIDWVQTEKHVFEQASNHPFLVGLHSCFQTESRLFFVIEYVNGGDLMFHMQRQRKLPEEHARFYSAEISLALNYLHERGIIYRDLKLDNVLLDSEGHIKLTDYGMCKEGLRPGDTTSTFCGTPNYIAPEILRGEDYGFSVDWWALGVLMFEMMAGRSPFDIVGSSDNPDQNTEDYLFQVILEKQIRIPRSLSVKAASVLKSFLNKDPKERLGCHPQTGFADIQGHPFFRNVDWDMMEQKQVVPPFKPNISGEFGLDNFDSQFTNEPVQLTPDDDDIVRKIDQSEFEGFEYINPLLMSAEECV
Protocol: as §1

PKC family members = assay: Selectivity within PKC family (enzymatic assays); assay type: biochemical; settings: PKC family members other than α, β, θ, γ
Protocol: as §1

panel of 119 kinases = assay: Kinome selectivity profiling; assay type: biochemical; settings: 1 μM Cmpd 1, panel of 119 kinases
Protocol: as §1

[1] = test system: HEK293 cells overexpressing PKCβ2; assay: PMA-induced IL-8 production in HEK293 cells over-expressing PKCβ2; assay type: cell-based; settings: HEK293 over-expressing PKCβ2, 3 nM PMA, 4-h supernatants; read-out: IC50, inhibition of IL-8 production in response to PMA
Protocol: For the HEK293 cell-based assay, HEK293 cells engineered to over-express full-length PKCβ2 were stimulated with 3 nM PMA in DMEM media supplemented with 0.5% FBS. 4-h cell culture supernatants were analyzed for IL-8 by MSD (Rockville, MD).

[2] = 4-day pharmacokinetic study with chow dosing; assay type: in vivo, rat; settings: ZSF1 obese rats, chow dosing approx. 50 mpk/day, corrected for plasma protein binding
Protocol: Three male 12-week old ZSF1 obese rats were fed control or 0.744 g/kg Cmpd 1 chow for 4 days. Food consumption was estimated by measuring food provided versus food remaining in the hopper. Blood was collected through tail vein from each animal at 9 a.m. and 4 p.m. 2 days after chow dosing started, and at 9 a.m. four days after chow dosing started, for PK determination. Plasma protein binding of Cmpd 1 was measured by equilibrium dialysis of the in vitro fraction unbound of Cmpd 1 at a concentration of […] in plasma from pooled male and female CD-1 mice. Plasma was centrifuged and supernatant was analyzed by liquid chromatography–tandem mass spectrometry to detect Cmpd 1 (York Bioanalytical Solutions; York, UK).

ZSF1 obese rats [3] = assay: 7-day food consumption and body weight study, Cmpd 1 chow, ZSF1 obese rats; assay type: in vivo, rat; settings: 7 days
Text: To evaluate food consumption in different rat strains, cohorts of 10 male ZSF1 obese rats, 8 male ZSF1 lean littermate rats, and 10 age-matched male Sprague Dawley (SD) rats were divided into two groups and fed chow with or without 0.744 g/kg Cmpd 1 (Cmpd 1 chow) for 7 days.

ZSF1 obese rats [4] = assay: 7-day oral gavage study, food consumption and body weight; assay type: in vivo, rat; settings: 100 mpk daily oral gavage, 7 days

Sequence of PKCβ1 (P05771 whole entry): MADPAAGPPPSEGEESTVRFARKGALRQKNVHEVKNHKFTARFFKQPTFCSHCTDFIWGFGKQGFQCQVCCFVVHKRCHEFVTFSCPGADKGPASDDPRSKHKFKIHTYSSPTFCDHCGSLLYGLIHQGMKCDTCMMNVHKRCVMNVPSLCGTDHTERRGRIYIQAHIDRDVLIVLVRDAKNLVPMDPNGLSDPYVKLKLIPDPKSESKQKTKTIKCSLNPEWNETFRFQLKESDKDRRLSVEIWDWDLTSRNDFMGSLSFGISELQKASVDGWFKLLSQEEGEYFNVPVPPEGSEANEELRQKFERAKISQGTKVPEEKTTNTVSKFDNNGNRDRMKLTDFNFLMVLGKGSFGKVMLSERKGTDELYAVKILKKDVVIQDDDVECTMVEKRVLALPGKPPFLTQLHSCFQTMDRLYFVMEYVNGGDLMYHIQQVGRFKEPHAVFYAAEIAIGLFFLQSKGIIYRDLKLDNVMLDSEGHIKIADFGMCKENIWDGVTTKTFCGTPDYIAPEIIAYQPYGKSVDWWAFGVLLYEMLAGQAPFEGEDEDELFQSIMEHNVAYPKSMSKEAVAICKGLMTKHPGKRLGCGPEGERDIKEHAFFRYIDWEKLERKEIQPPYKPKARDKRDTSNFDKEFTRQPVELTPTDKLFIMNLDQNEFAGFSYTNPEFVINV
Sequence of PKCδ (Q05655 whole entry): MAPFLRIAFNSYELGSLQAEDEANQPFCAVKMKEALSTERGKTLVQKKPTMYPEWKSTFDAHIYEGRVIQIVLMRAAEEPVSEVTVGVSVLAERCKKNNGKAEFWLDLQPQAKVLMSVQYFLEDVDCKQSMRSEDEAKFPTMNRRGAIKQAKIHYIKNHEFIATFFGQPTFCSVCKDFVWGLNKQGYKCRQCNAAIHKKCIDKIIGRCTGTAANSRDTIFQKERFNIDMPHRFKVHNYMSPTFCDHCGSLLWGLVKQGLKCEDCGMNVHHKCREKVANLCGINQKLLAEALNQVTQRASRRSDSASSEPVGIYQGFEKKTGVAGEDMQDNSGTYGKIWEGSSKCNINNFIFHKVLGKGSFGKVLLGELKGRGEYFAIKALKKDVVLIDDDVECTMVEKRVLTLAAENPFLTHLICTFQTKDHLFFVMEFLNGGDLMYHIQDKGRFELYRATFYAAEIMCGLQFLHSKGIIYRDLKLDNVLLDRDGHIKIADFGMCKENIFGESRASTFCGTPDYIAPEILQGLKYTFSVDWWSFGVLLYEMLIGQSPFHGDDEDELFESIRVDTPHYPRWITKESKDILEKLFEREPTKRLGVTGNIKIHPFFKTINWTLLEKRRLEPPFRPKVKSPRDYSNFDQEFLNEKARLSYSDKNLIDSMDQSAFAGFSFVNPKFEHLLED
Sequence of PKCθ (Q04759 whole entry): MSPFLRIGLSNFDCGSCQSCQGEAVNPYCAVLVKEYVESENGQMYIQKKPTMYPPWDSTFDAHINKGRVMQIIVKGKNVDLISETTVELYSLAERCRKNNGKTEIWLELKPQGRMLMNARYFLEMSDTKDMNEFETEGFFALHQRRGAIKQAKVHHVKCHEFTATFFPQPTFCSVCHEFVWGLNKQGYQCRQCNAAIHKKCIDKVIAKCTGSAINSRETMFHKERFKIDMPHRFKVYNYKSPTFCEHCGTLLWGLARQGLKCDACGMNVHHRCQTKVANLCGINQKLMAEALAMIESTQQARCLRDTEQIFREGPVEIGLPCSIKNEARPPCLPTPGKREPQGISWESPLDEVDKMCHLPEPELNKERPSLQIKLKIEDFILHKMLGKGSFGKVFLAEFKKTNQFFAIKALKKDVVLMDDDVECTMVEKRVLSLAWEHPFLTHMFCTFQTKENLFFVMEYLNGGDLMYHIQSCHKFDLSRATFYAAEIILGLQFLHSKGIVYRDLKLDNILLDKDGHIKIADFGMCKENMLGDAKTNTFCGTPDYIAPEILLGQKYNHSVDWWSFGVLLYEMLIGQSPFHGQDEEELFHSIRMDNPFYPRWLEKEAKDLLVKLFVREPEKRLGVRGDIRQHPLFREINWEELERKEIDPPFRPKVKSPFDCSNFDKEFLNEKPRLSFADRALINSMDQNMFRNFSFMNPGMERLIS
Sequence of PKCη (P24723 whole entry): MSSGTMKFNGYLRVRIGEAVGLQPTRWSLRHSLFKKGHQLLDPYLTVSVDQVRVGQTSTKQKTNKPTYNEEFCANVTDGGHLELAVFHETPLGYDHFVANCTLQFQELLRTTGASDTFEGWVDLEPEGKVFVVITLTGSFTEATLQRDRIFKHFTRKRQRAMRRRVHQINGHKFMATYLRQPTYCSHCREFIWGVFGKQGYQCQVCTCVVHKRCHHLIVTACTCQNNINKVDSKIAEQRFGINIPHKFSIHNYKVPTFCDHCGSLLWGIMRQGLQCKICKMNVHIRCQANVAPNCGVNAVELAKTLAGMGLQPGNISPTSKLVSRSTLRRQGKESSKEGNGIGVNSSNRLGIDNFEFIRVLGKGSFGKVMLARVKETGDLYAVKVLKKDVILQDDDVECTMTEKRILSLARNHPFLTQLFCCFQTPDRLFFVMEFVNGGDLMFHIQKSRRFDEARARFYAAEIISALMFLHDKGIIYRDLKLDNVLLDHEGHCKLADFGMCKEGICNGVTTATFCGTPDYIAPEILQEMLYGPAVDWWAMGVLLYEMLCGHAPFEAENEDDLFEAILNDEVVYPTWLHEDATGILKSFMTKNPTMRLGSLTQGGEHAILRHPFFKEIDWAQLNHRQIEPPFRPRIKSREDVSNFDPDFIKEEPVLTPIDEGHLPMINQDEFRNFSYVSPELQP

IC50 (PKCα): 0.002 µM | IC50 (PKCβ1): 0.011 µM | IC50 (PKCθ): 0.028 µM | IC50 (PKCγ): 0.096 µM | IC50 (PKCε): 0.623 µM | IC50 (PKCη): 1.52 µM | IC50 (PKCδ): 1.55 µM | IC50 (PKCι): > 10 µM | Free drug concentration in serum, evening ([2]; 4 p.m.): ~400 nM | Free drug concentration in serum, morning ([2]; 9 a.m.): roughly 700 nM
Structure (SMILES): Cc1ncc(F)c(Nc2n[nH]c3c2CN(C(=O)N2C[C@@H](C)N(CC4CCOCC4)C[C@@H]2C)C3(C)C)n1 [Cmpd 1, 5-[(2S,5R)-2,5-dimethyl-4-(tetrahydro-2H-pyran-4-ylmethyl)piperazin-l-yl]carbonyl-N-(5-fluoro-2-methylpyrimidin-4-yl)-6,6-dimethyl-1,4,5,6-tetrahydropyrrolo[3,4-c]pyrazol-3-amine]
Selectivity against all other PKC family members (PKC family members): greater than 40 fold | Kinome selectivity (panel of 119 kinases): good selectivity | IC50 [1]: 0.026 µM | Average food consumption (ZSF1 obese rats [3]): 24 g/day | Body weight change (ZSF1 obese rats [3]): lost weight | Reduction in food consumption versus no-drug chow (ZSF1 obese rats [3]): 37% | Animal body weights (ZSF1 obese rats [4]): decreased | Food consumption (ZSF1 obese rats [4]): decreased
